Test results published in BindingDB's records for doi:10.7270/Q2TX3CTT (Broad Institute, 2010).
Counter-ions that a name gives are not always drawn.

Target: Glycogen synthase kinase-3 beta (Homo sapiens, UniProt P49841)
Assay: concentration-response blocking of human GSK3B – biochemical, luminescence, cell-free homogeneous, retest, dose response (AID 434954)

Glycogen synthase kinase-3 beta, sequence (P49841 whole entry): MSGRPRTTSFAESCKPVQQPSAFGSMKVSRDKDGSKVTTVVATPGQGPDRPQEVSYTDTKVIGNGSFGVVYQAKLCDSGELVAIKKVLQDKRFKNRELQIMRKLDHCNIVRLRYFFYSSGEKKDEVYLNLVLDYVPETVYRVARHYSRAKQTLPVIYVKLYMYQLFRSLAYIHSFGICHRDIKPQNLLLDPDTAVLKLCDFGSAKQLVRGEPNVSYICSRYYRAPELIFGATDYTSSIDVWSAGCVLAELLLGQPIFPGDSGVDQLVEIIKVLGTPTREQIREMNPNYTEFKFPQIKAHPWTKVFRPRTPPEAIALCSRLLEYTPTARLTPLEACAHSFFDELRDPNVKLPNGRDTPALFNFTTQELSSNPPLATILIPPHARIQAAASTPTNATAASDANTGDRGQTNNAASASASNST

Row | SMILES | EC50
1 | Fc1ccccc1Cn1c2[n+](c3ccc(C(F)(F)F)cc31)CCCCC2 | > 300 µM
2 | Cc1ccccc1NC(=O)CSc1nnc2ccc(-c3ccncc3)nn12 [SMR000808359] | > 300 µM
3 | CCCCC(=O)Nc1cc(C)c(NC(=O)c2cccs2)cn1 [N-[4-methyl-6-(1-oxopentylamino)-3-pyridinyl]-2-thiophenecarboxamide] | > 300 µM
4 | Nc1nonc1-n1nnc(C(=O)NN=Cc2cccc(F)c2)c1CN1CCCCCC1 [1-(4-amino-1,2,5-oxadiazol-3-yl)-5-(1-azepanylmethyl)-N-[(3-fluorophenyl)methylideneamino]-4-triazolecarboxamide] | 2.56 µM
5 | O=c1oc2cc(O)ccc2c2c1CCCC2 [3-hydroxy-7,8,9,10-tetrahydro-6H-benzo[c]chromen-6-one] | > 300 µM
6 | Cc1cccc(N2CCN(C(=O)c3csc4ccccc34)CC2C)c1 (configuration not stated) [4-(1-benzothien-3-ylcarbonyl)-2-methyl-1-(3-methylphenyl)piperazine] | > 300 µM
7 | COc1cc(SC)ccc1C(=O)OCC(=O)NCCNC(=O)COC(=O)c1ccc(SC)cc1OC [MLS001129814] | > 300 µM
8 | Cc1cc(NC(=O)CSc2nc(-c3cccnc3)ccc2C#N)no1 [MLS000036936] | > 300 µM
9 | O=C(O)c1cc(-c2ccc(CN=Nc3ccc(Cl)cc3)o2)ccc1Cl [2-chloro-5-{5-[2-(4-chlorophenyl)carbonohydrazonoyl]-2-furyl}benzoic acid] | > 300 µM
10 | Cc1ccc(NC(=O)NCCCN2CCCC2=O)cc1C [SMR000677961] | > 300 µM
11 | c1ccc(-c2nc(NCCCn3ccnc3)c3oc4ccccc4c3n2)cc1 [N-[3-(1-imidazolyl)propyl]-2-phenyl-4-benzofuro[3,2-d]pyrimidinamine;hydrochloride] | 34.7 µM
12 | Cc1cc(C)n2nc(C(=O)NN=Cc3ccc(O)cc3)nc2n1 [5,7-dimethyl-N'-[(4-oxocyclohexa-2,5-dien-1-ylidene)methyl]-[1,2,4]triazolo[1,5-a]pyrimidine-2-carbohydrazide] | 15.4 µM
13 | CC(C)CC(CO)N1CCN(C(=O)c2ccc(Cl)c(Cl)c2)CCC1=O (configuration not stated) [1-(3,4-dichlorobenzoyl)-4-(1-hydroxy-4-methylpentan-2-yl)-1,4-diazepan-5-one] | > 300 µM
14 | Cc1cnc(NC(=O)c2sc(Nc3ccccc3)nc2N)o1 [MLS000762724] | 9.59 µM
15 | COc1cccc(C2c3cc4c(cc3N=C3CC(C)(C)CC(=O)C32)OCO4)c1 (configuration not stated) [MLS000522404] | > 300 µM
16 | COc1cccc(CNC(=O)C2CCN(S(=O)(=O)c3ccc(-n4cnnn4)cc3)CC2)c1 [SMR000600329] | > 300 µM
17 | O=c1[nH]c(=S)n(-c2ccccc2F)c(O)c1C=NCc1ccco1 [(5E)-1-(2-fluorophenyl)-5-[(furan-2-ylmethylamino)methylidene]-2-sulfanylidene-1,3-diazinane-4,6-dione] | 80.2 µM
18 | O=C(CCS(=O)(=O)Cc1ccccc1)Nc1ncc([N+](=O)[O-])s1 [SMR000669229] | 57.1 µM
19 | CC(C)N1CCc2c(sc(NC(=O)Cc3ccccc3)c2C(N)=O)C1 | > 300 µM
20 | CCCn1nc(NC(=O)CC(C)C)c2cc3ccccc3nc21 [SMR000043522] | > 300 µM
21 | COc1ccc2occ(C(=O)c3ccc(N)cc3)c2c1 [SMR000539215] | 14.7 µM
22 | O=c1[nH]c2ccccc2c(=O)n1-c1ccc(Cl)cc1Cl [3-(2,4-dichlorophenyl)quinazoline-2,4(1H,3H)-dione] | > 300 µM
23 | CNc1nc(N)c([N+](=O)[O-])c(Nc2cccc(Cl)c2)n1 [SMR000434546] | 11.7 µM

Row | SMILES | EC50
24 | Cc1ccsc1CN=Nc1ncnc2nc[nH]c12 [N-[(3-methyl-2-thiophenyl)methylideneamino]-7H-purin-6-amine] | 9 µM
25 | COc1cccc2cc(C(=O)NCc3ccc(C)cc3)c(=O)oc12 [8-methoxy-N-(4-methylbenzyl)-2-oxo-2H-chromene-3-carboxamide] | > 300 µM
26 | C=CCOc1ccc(CN=Nc2ccccn2)cc1OC [N-[(3-methoxy-4-prop-2-enoxyphenyl)methylideneamino]pyridin-2-amine] | > 300 µM
27 | Fc1ccc(CSc2nnc(-c3cccs3)o2)cc1 [SMR000003242] | > 300 µM
28 | COc1ccc(C(=O)c2coc3ccc(O)cc23)cc1 [MLS001198628] | 13.2 µM
29 | O=C(Nc1nccs1)C1CCCN1S(=O)(=O)c1cccc2cccnc12 (configuration not stated) [SMR000096012] | 30.2 µM
30 | COCCNc1nc(N)c([N+](=O)[O-])c(NCC2CCCO2)n1 (configuration not stated) [MLS000588049] | 13 µM
31 | NC(=O)c1cccc2c1C(=O)N(C1CCCCC1)C2 [2-cyclohexyl-3-oxoisoindoline-4-carboxamide] | > 300 µM
32 | CCOC(=O)c1nnn(-c2nonc2N)c1CN(CC)CC [ethyl 1-(4-amino-1,2,5-oxadiazol-3-yl)-5-(diethylaminomethyl)triazole-4-carboxylate] | > 300 µM
33 | COc1cc(C2OCC3C(c4cc(OC)c(OC)c(OC)c4)OCC23)cc(OC)c1OC (configuration not stated) | > 300 µM
34 | O=C(Nc1ccc(N2CCN(Cc3ccccc3)CC2)cc1)c1ccccc1[N+](=O)[O-] [N-[4-(4-benzyl-1-piperazinyl)phenyl]-2-nitrobenzamide] | > 300 µM
35 | NC(=O)COC(=O)c1ccc(-c2ccc(O)cc2)cc1 | > 300 µM
36 | Cc1ccc(Nc2nc(N)c([N+](=O)[O-])c(NCCO)n2)cc1C [SMR000436043] | 14.6 µM
37 | O=C(Nc1ccccc1C(=O)N1CCOCC1)C1CCCO1 (configuration not stated) [SMR000077483] | > 300 µM
38 | CCc1nc2oc3cc(OC)ccc3c(=O)c2c(=O)n1Cc1ccccc1 [2-ethyl-8-methoxy-3-(phenylmethyl)chromeno[2,3-d]pyrimidine-4,5-dione] | 4.2 µM
39 | COc1ccc(Nc2nc(-c3ccncc3)nc3ccccc23)cc1 [N-(4-methoxyphenyl)-2-pyridin-4-ylquinazolin-4-amine] | > 300 µM
40 | Cc1ccc(SCc2c(C(=O)NN=Cc3ccoc3)nnn2-c2nonc2N)cc1 [SMR000647588] | > 300 µM
41 | COC(=O)c1nnn(-c2nonc2N)c1-c1cccs1 [1-(4-amino-1,2,5-oxadiazol-3-yl)-5-thiophen-2-yl-4-triazolecarboxylic acid methyl ester] | 26.2 µM
42 | COc1ccc(Nc2nc(NCCCN3CCOCC3)nc(N)c2[N+](=O)[O-])cc1 [N4-(4-methoxyphenyl)-N2-(3-morpholin-4-ylpropyl)-5-nitro-pyrimidine-2,4,6-triamine] | 1.11 µM
43 | Nc1nonc1-n1nnc(C(=O)NN=Cc2ccccc2O)c1CN1CCCC1 [1-(4-amino-1,2,5-oxadiazol-3-yl)-N'-[(E)-(6-oxo-1-cyclohexa-2,4-dienylidene)methyl]-5-(1-pyrrolidinylmethyl)-4-triazolecarbohydrazide] | 24.6 µM
44 | CCc1ccc(C2CC(c3ccc(C)cc3)Nc3nc(N)nn32)cc1 (configuration not stated) | > 300 µM
45 | CCC(C)Oc1cc(-c2ccnc(Nc3cccc(Cl)c3)n2)ccn1 (configuration not stated) [SMR000463563] | 5.38 µM
46 | O=C1NC(=O)c2c(NC(=O)C3CCCO3)cccc21 (configuration not stated) [MLS000064410] | > 300 µM

Row | SMILES | EC50
47 | O=C(CCSCCc1ccccn1)Nc1ccc(Br)cn1 [N-(5-bromopyridin-2-yl)-3-(2-pyridin-2-ylethylsulfanyl)propanamide] | 39.3 µM
48 | O=C(NCC(c1cccs1)N1CCOCC1)c1ccccc1NS(=O)(=O)c1ccc(Cl)cc1 (configuration not stated) [SMR000242318] | > 300 µM
49 | CC(C)c1c(C(=O)NN=Cc2ccoc2)nnn1-c1nonc1N [MLS001139450] | > 300 µM
50 | CCn1c(SCc2c(F)cccc2Cl)nnc1-c1ccco1 [3-[(2-chloro-6-fluorophenyl)methylsulfanyl]-4-ethyl-5-(furan-2-yl)-1,2,4-triazole] | > 300 µM
51 | O=C(CSc1nnc(CNC(=O)c2cccc(C(F)(F)F)c2)o1)NC1CCCCC1 | > 300 µM
52 | Nc1nonc1-n1nnc(C(=O)NN=Cc2ccccc2F)c1-c1cccs1 | 14.4 µM
53 | OCC1(Cc2ccccc2)CCN(Cc2ccc(-c3ccco3)cc2)CC1 [[1-[[4-(2-furanyl)phenyl]methyl]-4-(phenylmethyl)-4-piperidinyl]methanol] | > 300 µM
54 | Cc1nc(Nc2ccccc2)sc1C(=O)Nc1ccccc1 | > 300 µM
55 | CC1CCc2c(sc(Nc3nc4c(F)cccc4s3)c2C(N)=O)C1 (configuration not stated) [2-[(4-fluoranyl-1,3-benzothiazol-2-yl)amino]-6-methyl-4,5,6,7-tetrahydro-1-benzothiophene-3-carboxamide] | > 300 µM
56 | O=C(COc1ccccc1)N1CCN(S(=O)(=O)c2cccs2)CC1 [1-(phenoxyacetyl)-4-(2-thienylsulfonyl)piperazine] | > 300 µM
57 | Cc1ccc(C=NNC(=O)COc2ccc(C)cc2[N+](=O)[O-])cc1 [2-(4-methyl-2-nitrophenoxy)-N'-[(1Z)-(4-methylphenyl)methylene]acetohydrazide] | > 300 µM
58 | COc1ccc(/C=C(/NC(=O)c2ccccc2)C(=O)NN=Cc2ccncc2)c(OC)c1 [N-[(E)-1-(2,4-dimethoxyphenyl)-3-oxo-3-[2-(pyridin-4-ylmethylidene)hydrazinyl]prop-1-en-2-yl]benzamide] | > 300 µM
59 | O=C(O)c1ccccc1NCc1ccncc1 [SMR000031483] | > 300 µM
60 | Cc1ccc(S(=O)(=O)N(C)CC(=O)N2CCCc3ccccc32)cc1 [SMR000076264] | > 300 µM
61 | O=C(Nc1ccncc1)Nc1ccncc1 [1,3-bis(4-pyridyl)urea] | > 300 µM
62 | Nc1nc(Nc2cccc(Cl)c2)nc(NCCO)c1[N+](=O)[O-] | 1.73 µM
63 | CC(=O)N1CCc2c(sc(NC(=O)C3CCCCC3)c2C(N)=O)C1 [2-(cyclohexylcarbonylamino)-6-ethanoyl-5,7-dihydro-4H-thieno[2,3-c]pyridine-3-carboxamide] | > 300 µM
64 | N#Cc1c(O)nc(SCC(=O)c2cccs2)nc1-c1cccs1 [6-oxo-2-{[2-oxo-2-(2-thienyl)ethyl]sulfanyl}-4-(2-thienyl)-1,6-dihydro-5-pyrimidinecarbonitrile] | > 300 µM
65 | COc1cccc(NC(=O)CN(C2=NC3CS(=O)(=O)CC3S2)c2cccc(C)c2)c1 (configuration not stated) [MLS001110132] | > 300 µM
66 | CCN(CC)Cc1c(C(=O)NN=Cc2cccs2)nnn1-c1nonc1N [1-(4-amino-1,2,5-oxadiazol-3-yl)-5-(diethylaminomethyl)-N-(thiophen-2-ylmethylideneamino)triazole-4-carboxamide] | 5.16 µM
67 | O=C(c1ccc(Cl)cc1)c1coc2ccc(O)cc12 [(4-Chloro-phenyl)-(5-hydroxy-benzofuran-3-yl)-methanone] | 13.4 µM
